Measured values as given in patent publication US9585957B2, “Adenosine receptor agonists and antagonists to modulate T cell responses” (THE JOHNS HOPKINS UNIVERSITY, priority 2007, dated 2017).

Experiments:
[1] = test system: 6.5+ T cells in C3HA mice; assay: Ex vivo tolerance studies: in vitro rechallenge of T cells harvested from vehicle- or CGS-treated C3HA mice
Experimental: 1.2×10^6 clonotypic 6.5^+ T cells were adoptive transferred into C3HA recipient mice as described above. On the second or third day (as noted) after transfer the splenocytes and lymphocytes were harvested and pooled. 2×10^5 of the pooled cells were incubated in 96-well round bottom plates with varying concentrations of HA class II peptide for 24 hours. A portion of the supernatant were withdrawn and later assayed for IL-2 and IFN-γ productions by ELISA. The wells were then pulsed with [^3H]thymidine for 16 hours and proliferation determined by tritium incorporation, as described above. All samples were performed in triplicate.

[2] = test system: 6.5+ T cells in C3HA mice; assay: In vivo suppression: second transfer of lethal numbers of clonotypic 6.5+ T cells into surviving C3HA mice; details: mice that survived as a result of CGS treatment; no drug at second transfer (FIG. 5d)
Experimental: It has been shown that mice that survive the initial transfer of donor T cells can survive subsequent transfer of higher numbers of clonotypic T cells. To determine if adenosine mediates the formation of T regulatory cells, in vivo, we gave the surviving mice from FIG. 4a a transfer of […] clonotypic T cells 4-6 weeks after the first transfer. No CGS is administered upon the second transfer.
Tests were conducted to determine if the CGS-induced clonotypic regulatory cells could protect the mice upon subsequent rechallenge with a second injection of clonotypic cells. An in vivo suppression assay was performed by adoptively transferring uniformly lethal numbers of clonotypic 6.5^+ T cells (2.5×10^6) into mice that had survived the initial adoptive transfer (and developed regulatory T cells) (FIG. 5d).

LAG-3 = LAG-3 expression by RT-PCR in 6.5+ T cells sorted from CGS-treated C3HA mice; assay type: in vivo; details: T cells from CGS-treated versus vehicle-treated C3HA mice (FIG. 5a)
Experimental: For in vivo studies, recipient C3HA mice were given 1.2×10^6 6.5^+ donor T cells as described above. On Day 3, donor T cells were sorted and cDNA generated as above. RT-PCR was performed as previously described (Safford et al. Nat Immunol. 2005; 6:472-480).
Recipient mice are given 1.2×10^6 donor T cells as described above. On Day 4, cells from spleens and lymph nodes are harvested and pooled. They are enriched for CD4^+ T cells via negative selection using biotinylated anti-CD8 (Ly-2, 53-6.7), anti-B220 (RA3-6B2) and anti-Thy 1.2(30-H12) antibodies (all from BD Biosciences PharMingen), and MACS streptavidin microbeads and AutoMACS column (Miltenyi Biotech) to deplete CD8^+ T cells, B cells and recipient cells (Thy 1.2′). The remaining cells are then sorted on Thy 1. I and CD4 using FACSAria cell sorter to yield a CD4′, 6.5′ T cell population of greater than 95% purity. RT-PCR was performed as previously described’.

[3] = test system: 6.5 TCR transgenic T cells; assay: Anergy and LAG-3 induction in primary 6.5 TCR transgenic CD4+ T cells incubated with HA and CGS, then rechallenged; assay type: cell-based, mice
Experimental: Splenocytes and lymphocytes from A2a receptor wt or null 6.5^+ mice (see below) were harvested and enriched for CD4^+ T cells via negative selection with the CD4^+ T cell isolation kit and LS MACs column (all from Miltenyi Biotech, Auburn, Calif.). […] The T cells were rechallenged for 3-4 hours with 100 ug/mL HA class II peptide, GolgiStop (BD PharMingen) and irradiated APCs.
The cells were harvested, mRNA isolated with Trizol and cDNA was generated. RT-PCR was performed as previously described (Safford et al. Nat Immunol. 2005; 6:472-480).
Splenocytes and lymphocytes from A2a receptor wt or null, 6.5^+ mice were harvested and enriched for CD4′ T cells via negative selection with the CD4^+ T cell isolation kit and LS MACs column (all from Miltenyi Biotech, Auburn, Calif.). […] Irradiated splenocytes from mice of the same A2a receptor genotype were used as APCs, at a 10:1 ratio with T cells. After 3 days, the T cells were harvested and isolated via a ficoll gradient, washed extensively and immediately rechallenged for intracellular staining Briefly, the 1×10^5 T cells were stimulated for 3-4 hours with 5×10^5 irradiated A2a receptor wt APCs, […] HA class II peptide and a 1:1000 dilution of GolgiStop (BD PharMingen), in a total volume of […]. After the stimulation, the cells were washed, stained with anti-6.5 and anti-CD4 antibodies, permeablized and fixed, then stained with anti-IFN-y antibody. Finally, the cells were washed and IFN-y production of […], 6.5^+ T cells was analyzed by flow cytometry.

## CCNC(=O)[C@H]1O[C@@H](n2cnc3c(N)nc(NCCc4ccc(CCC(=O)O)cc4)nc32)[C@H](O)[C@@H]1O [CGS, 2-p-(2-carboxyethyl)phenethyl-amino-5-N-ethyl-carboxamidoadenosine]
[1]; CGS-treated versus vehicle-treated mice, no CGS during rechallenge
  proliferation and cytokine production of harvested cells, two days after adoptive transfer: equal proliferation and cytokine production
[1]; T cells from CGS-treated versus vehicle-treated mice, no CGS during rechallenge (FIG. 4b)
  proliferation following in vitro stimulation, Day 3: significant reduction in proliferation
[1]; T cells from CGS-treated versus vehicle-treated mice, no CGS during rechallenge (FIG. 4c)
  IFN-γ production following in vitro stimulation, Day 3: significant reduction
[2]
  survival of the second adoptive transfer: 100%
LAG-3
  kinetics of LAG-3 expression in T cells: quicker and more robust
[3]; A2a receptor Wt 6.5 T cells, HA with 1 μM CGS during primary stimulation (FIG. 3a)
  IFN-γ production upon rechallenge by intracellular staining: hyporesponsive upon subsequent stimulation
[3]; A2a receptor null 6.5 T cells, HA with 1 μM CGS (FIG. 3a)
  CGS-induced anergy in A2a receptor null T cells: resistant to CGS-induced anergy
[3]; CD4+ 6.5+ primary T cells, irradiated APCs and HA, 1 μM CGS, 3 days, mRNA (FIG. 3b)
  LAG-3 expression: increase in LAG-3 expression
[3]; CGS plus exogenous IL-2
  induction of LAG-3 with exogenous IL-2 added: abrogated
